The source made the active and inactive calls.
Experiments:
[1] = NIH-3T3 fibroblast cytotoxicity, dose response, cytotoxicity control, cell-based, fluorescence, Alamar Blue, secondary assay (AID 2327); assay type: functional;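 note: NIH-3T3 mouse fibroblasts cultured with fluconazole at 8 µg/mL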
[2] = target: T1, Serine/threonine-protein phosphatase (Candida dubliniensis (strain CD36 / CBS 7987 / NCPF 3949 / NRRLY-17841) (Yeast), UniProt B9W6M3); experiment: calcineurin pathway inhibitors in yeast reporter, dose response, S. cerevisiae, CDRE-lacZ, luminescence, secondary (AID 2388); assay type: functional, cell-based;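 note: yeast reporter cells carrying a calcineurin-responsive lacZ construct stimulated with calcium chloride; luminescent beta-galactosidase reporter signal in whole cells rather than isolated phosphatase activity; potency for inhibition where a drop in reporter signal means calcineurin blockade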
T1 sequence (B9W6M3 whole entry): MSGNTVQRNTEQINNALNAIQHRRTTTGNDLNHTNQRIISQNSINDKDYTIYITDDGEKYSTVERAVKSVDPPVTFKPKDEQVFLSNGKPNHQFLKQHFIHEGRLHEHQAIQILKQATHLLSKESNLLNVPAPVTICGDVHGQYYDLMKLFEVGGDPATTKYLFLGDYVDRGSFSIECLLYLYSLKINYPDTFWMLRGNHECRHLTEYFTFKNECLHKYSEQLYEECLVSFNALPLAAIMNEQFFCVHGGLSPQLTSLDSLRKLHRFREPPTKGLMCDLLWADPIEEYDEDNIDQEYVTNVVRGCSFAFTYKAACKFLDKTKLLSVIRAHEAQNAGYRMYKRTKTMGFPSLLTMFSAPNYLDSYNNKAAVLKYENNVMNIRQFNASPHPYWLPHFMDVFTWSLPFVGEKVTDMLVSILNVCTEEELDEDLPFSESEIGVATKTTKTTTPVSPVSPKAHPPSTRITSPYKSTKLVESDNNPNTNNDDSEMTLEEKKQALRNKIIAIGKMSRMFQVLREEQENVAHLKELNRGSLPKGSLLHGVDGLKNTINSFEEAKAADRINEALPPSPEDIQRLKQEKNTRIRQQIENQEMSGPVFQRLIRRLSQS

[3] = target: ORF 73 (Human herpesvirus 8, UniProt O40947); experiment: inhibitors of C-LANA binding to LBS DNA, dose response, biochemical, fluorescence polarization, cherry-picked samples (AID 504725); set-up: species or system Human gammaherpesvirus 8;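 note: fluorescence polarization of a labeled DNA duplex reporting LANA DNA binding; potency is for inhibitors that block LANA binding to the DNA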
Sequence of ORF 73 (O40947 whole entry): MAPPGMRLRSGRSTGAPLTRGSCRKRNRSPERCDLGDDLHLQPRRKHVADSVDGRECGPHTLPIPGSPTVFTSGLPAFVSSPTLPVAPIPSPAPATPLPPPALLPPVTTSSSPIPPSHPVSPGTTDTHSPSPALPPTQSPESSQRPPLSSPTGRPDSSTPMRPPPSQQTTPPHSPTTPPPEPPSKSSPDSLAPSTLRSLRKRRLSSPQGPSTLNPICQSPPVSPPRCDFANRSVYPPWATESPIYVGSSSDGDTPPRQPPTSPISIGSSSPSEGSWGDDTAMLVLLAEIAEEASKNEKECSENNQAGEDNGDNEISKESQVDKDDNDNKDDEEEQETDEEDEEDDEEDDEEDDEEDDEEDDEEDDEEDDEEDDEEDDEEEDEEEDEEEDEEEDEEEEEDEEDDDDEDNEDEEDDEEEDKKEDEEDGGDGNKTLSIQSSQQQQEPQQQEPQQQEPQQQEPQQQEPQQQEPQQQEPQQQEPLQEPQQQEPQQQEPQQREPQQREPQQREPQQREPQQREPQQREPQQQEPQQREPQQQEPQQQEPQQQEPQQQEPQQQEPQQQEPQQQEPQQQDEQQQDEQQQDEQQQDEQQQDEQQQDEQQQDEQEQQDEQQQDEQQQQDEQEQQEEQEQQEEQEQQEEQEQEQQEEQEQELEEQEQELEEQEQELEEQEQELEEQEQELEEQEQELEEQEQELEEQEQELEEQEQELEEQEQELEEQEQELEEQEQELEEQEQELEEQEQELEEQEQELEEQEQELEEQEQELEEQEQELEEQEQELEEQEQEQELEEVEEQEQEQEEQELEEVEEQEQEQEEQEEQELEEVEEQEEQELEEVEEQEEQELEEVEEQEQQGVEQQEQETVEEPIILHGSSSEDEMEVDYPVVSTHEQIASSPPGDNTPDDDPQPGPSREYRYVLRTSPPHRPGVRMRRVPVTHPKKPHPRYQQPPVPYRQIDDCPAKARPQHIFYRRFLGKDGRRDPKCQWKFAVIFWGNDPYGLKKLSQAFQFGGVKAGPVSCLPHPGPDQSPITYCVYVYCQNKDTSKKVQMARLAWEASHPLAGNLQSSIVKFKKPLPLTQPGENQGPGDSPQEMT

[4] = target: ATP-dependent molecular chaperone HSP82 (Candida albicans (strain WO-1) (Yeast), UniProt C4YTQ8); experiment: loss of DOC-induced GRE-beta-galactosidase reporter signal, dose response, Hsp90 inhibitor project, S. cerevisiae, luminescence (AID 2400); assay type: functional, cell-based;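 note: beta-galactosidase luminescence from glucocorticoid response element reporter as proxy for Hsp90 function; inhibitor potency where signal loss means Hsp90 inhibition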
Sequence of ATP-dependent molecular chaperone HSP82 (C4YTQ8 whole entry): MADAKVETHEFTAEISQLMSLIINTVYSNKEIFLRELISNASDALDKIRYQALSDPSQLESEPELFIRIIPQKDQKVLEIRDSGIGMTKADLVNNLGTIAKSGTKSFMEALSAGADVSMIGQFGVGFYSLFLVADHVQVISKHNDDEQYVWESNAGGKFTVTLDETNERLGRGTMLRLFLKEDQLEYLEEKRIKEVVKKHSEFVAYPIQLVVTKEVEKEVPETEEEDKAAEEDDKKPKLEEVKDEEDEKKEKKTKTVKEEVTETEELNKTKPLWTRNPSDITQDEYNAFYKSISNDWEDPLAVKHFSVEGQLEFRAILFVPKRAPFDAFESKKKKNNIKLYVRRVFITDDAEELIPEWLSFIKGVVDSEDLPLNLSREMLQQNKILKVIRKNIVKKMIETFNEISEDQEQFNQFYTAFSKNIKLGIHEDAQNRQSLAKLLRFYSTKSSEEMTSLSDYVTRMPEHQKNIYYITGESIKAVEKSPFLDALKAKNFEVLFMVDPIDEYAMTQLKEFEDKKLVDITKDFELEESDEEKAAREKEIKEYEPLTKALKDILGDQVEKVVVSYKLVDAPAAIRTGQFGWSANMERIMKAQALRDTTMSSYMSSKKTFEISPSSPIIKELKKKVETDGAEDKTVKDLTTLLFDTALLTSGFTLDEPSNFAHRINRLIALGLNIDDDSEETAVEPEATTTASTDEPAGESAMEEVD

[5] = C. albicans growth with fluconazole, confirmation, fluorescence, retest (AID 2467); assay type: functional, cell-based
[6] = target: UDP-galactopyranose mutase (Mycobacterium tuberculosis, UniProt P9WIQ1); experiment: Inhibitors of Mycobacterium tuberculosis UDP-galactopyranose mutase (UGM) enzyme Measured in Biochemical System Using Plate Reader - 2105-02_Inhibitor_Dose_CherryPick_Activity. [Related pubchem assays (depositor defined):AID504439]
Sequence of UDP-galactopyranose mutase (P9WIQ1 whole entry): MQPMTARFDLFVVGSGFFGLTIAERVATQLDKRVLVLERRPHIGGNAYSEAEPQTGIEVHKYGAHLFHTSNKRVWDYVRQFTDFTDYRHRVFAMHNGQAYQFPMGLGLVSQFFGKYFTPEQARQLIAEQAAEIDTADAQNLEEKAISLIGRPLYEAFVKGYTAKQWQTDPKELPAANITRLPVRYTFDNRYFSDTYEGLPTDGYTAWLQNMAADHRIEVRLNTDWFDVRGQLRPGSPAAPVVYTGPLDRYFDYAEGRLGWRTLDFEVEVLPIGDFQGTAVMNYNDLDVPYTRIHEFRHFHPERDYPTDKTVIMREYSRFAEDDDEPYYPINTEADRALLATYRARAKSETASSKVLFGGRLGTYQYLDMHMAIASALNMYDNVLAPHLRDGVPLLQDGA

[7] = test system: Jurkat; experiment: antigen receptor-induced NF-kB inhibitors, dose response, Jurkat, luciferase reporter, luminescence, B- and T-cell (AID 489004); assay type: functional, cell-based; settings: Homo sapiens;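 note: NF-kB luciferase reporter Jurkat cells stimulated with PMA plus ionomycin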
[8] = cytotoxicity in HEK-293T NF-kB-Luc cells, dose response, cytotoxicity control for B/T-cell NF-kB inhibitor project, cell-based, uHTS hits (AID 489019); assay type: functional;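 note: IC50 reflects cytotoxicity as loss of cell viability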
[9] = target: T2, COUP transcription factor 2 (Homo sapiens, UniProt P24468); experiment: Luminescence-based cell-based high throughput dose response assay to identify inhibitors of COUP-TFII (NR2F2).; assay type: functional;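 note: HEK293 cells transiently cotransfected with COUP-TFII expression vector and reporter; luciferase reporter luminescence driven by COUP-TFII from the pX2-168 reporter plasmid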
T2 sequence (P24468 whole entry): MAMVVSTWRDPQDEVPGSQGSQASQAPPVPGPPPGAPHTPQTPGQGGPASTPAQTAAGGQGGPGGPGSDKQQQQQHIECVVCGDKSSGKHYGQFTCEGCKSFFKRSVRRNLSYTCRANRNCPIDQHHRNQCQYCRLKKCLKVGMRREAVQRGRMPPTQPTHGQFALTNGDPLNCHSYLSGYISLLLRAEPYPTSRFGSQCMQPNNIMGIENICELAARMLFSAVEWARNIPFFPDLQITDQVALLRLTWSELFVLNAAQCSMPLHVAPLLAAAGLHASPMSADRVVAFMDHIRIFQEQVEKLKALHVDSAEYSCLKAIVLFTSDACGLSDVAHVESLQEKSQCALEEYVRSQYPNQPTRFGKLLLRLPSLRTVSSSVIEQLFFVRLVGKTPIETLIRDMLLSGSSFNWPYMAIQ

[10] = target: T3, Heat shock factor protein 1 (Mus musculus, UniProt P38532); experiment: inhibition of MG132-induced HSE-luciferase signal, confirmation, cell-based, NIH3T3, luminescence, dose retest (AID 2382); assay type: functional;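 note: NIH3T3 fibroblasts with HSF1-driven luciferase reporter stressed by proteasome inhibitor MG132; luminescence from HSF1-driven luciferase expression after 8 hours of MG132 stress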
T3 sequence (P38532 whole entry): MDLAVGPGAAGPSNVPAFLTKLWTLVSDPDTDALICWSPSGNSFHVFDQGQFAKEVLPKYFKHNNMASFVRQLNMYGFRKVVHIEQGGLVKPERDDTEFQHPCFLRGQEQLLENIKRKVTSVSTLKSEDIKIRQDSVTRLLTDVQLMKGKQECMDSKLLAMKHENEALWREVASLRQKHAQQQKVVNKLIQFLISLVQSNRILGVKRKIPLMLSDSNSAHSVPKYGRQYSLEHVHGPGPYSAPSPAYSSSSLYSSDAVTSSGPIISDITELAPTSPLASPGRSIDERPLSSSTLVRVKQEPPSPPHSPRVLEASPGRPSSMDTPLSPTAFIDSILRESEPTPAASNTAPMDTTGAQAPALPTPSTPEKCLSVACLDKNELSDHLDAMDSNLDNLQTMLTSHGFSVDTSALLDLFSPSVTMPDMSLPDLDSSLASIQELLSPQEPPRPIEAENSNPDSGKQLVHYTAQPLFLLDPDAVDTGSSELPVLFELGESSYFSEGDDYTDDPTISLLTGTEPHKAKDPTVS

[11] = inhibitors of SNCA 5'UTR-driven reporter translation, confirmation, H4 neuroglioma cells, luminescence (AID 1988); assay type: functional, cell-based
[12] = Luminescence Cell-Based Dose Response HTS to Identify Inhibitors of 5'UTR Stem-Loop Driven Prion Protein mRNA Translation in H4 Neuroglioblastoma Cells. [Related pubchem assays: 1827 (Project Summary), 1813 (Primary HTS)]; assay type: functional
[13] = inhibitors of firefly luciferase expression or activity, dose response, H4 neuroglioma cells, luminescence (AID 1990); assay type: functional, cell-based
[14] = target: CAAX prenyl protease 1 (Saccharomyces cerevisiae S288c, UniProt P47154); experiment: Ste24 protease inhibitors, dose response, biochemical, S. cerevisiae, plate reader, cherry-pick (AID 488815)
Sequence of CAAX prenyl protease 1 (P47154 whole entry): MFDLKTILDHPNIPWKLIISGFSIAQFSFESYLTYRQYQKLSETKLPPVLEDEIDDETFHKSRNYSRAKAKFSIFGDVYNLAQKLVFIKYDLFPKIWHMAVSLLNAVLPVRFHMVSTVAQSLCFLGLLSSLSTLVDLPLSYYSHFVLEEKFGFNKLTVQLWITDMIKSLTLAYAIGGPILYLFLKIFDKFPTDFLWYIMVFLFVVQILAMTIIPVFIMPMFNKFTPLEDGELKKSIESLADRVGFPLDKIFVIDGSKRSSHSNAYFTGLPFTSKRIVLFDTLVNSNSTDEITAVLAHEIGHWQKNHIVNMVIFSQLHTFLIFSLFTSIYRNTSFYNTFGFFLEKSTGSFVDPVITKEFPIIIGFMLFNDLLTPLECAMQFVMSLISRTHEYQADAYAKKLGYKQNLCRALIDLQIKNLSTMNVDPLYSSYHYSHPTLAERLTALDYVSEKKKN

[15] = target: CAAX prenyl protease 2 (Saccharomyces cerevisiae S288c, UniProt Q03530); assay type: biochemical
Sequence of CAAX prenyl protease 2 (Saccharomyces cerevisiae S288c, UniProt Q03530) (Q03530 whole entry): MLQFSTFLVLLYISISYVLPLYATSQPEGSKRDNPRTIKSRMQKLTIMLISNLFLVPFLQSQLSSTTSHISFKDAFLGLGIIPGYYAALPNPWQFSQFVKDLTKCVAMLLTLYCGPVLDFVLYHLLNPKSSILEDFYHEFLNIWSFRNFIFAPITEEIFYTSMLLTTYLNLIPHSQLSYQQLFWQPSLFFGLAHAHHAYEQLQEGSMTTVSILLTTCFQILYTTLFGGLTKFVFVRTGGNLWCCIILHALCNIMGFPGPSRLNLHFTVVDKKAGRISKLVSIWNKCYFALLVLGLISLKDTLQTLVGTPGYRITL

[16] = target: Prothrombin (Homo sapiens, UniProt P00734); experiment: Thrombin 1536 HTS Dose Response Confirmation. [Related pubchem assays: 1046 (Thrombin 1536 HTS; hits were confirmed in this assay)]; assay type: functional
[17] = target: T4, CAAX prenyl protease 2 (Homo sapiens, UniProt Q9Y256); experiment: human Rce1 protease inhibitors, dose response, biochemical, yeast membranes, quenched-peptide fluorescence, cherry-pick (AID 588849)
T4 sequence (Q9Y256 whole entry): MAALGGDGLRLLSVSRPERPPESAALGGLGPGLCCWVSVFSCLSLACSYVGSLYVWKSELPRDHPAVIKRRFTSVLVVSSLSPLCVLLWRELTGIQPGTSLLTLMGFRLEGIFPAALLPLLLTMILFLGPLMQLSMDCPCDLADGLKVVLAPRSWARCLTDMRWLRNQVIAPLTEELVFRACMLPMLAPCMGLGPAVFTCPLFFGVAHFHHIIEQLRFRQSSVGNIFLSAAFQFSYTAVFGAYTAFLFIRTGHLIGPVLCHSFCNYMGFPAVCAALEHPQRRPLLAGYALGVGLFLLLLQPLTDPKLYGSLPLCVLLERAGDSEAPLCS

[18] = test system: HEK293; experiment: cytotoxicity in HEK293T NF-kB-Luc cells, SAR follow-up, cytotoxicity control for NF-kB activator project, cell-based, resazurin fluorescence (AID 493251); assay type: functional; settings: Homo sapiens
[19] = test system: Jurkat; experiment: SAR Analysis of small molecule inhibitors of T-cell specific antigen receptor-induced NF-kB activation in a Jurkat cell line using a luminescence assay - Set 2. [Related pubchem assays (depositor defined):AID435003, AID435012, AID465]; assay type: functional, cell-based; settings: Homo sapiens
[20] = test system: HEK293; experiment: SAR Analysis of small molecule inhibitors of T-cell specific antigen receptor-induced NF-kB activation in a HEK-293T cell line using a luminescence assay - Set 2. [Related pubchem assays (depositor defined):AID435003, AID435012, AID489026]; assay type: functional, cell-based; settings: Homo sapiens
[21] = target: T5, Estrogen receptor (Homo sapiens, UniProt P03372);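 note: potency for inhibiting coactivator peptide recruitment to the receptor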
T5 sequence (P03372 whole entry): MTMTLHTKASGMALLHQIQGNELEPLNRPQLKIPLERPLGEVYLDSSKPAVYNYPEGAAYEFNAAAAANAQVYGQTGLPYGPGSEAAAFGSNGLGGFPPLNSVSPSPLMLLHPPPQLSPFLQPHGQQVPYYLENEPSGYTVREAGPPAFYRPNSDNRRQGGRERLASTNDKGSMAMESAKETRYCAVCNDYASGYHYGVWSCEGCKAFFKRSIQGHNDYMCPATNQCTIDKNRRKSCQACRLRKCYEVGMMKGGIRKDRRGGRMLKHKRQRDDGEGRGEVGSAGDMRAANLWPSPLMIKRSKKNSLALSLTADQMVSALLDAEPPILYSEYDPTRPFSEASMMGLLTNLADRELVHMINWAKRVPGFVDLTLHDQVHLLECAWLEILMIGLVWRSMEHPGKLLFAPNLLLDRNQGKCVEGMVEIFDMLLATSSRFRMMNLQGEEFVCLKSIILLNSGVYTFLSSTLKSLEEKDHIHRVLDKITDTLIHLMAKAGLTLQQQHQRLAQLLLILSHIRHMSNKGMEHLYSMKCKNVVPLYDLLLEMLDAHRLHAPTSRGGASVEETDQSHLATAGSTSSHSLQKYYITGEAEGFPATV

[22] = target: T6, Estrogen receptor beta (Homo sapiens, UniProt Q92731); experiment: ERβ–SRC-3 coactivator interaction inhibitors, confirmation, orthogonal assay, biochemical, ELISA, streptavidin-HRP readout (AID 1060)
T6 sequence (Q92731 whole entry): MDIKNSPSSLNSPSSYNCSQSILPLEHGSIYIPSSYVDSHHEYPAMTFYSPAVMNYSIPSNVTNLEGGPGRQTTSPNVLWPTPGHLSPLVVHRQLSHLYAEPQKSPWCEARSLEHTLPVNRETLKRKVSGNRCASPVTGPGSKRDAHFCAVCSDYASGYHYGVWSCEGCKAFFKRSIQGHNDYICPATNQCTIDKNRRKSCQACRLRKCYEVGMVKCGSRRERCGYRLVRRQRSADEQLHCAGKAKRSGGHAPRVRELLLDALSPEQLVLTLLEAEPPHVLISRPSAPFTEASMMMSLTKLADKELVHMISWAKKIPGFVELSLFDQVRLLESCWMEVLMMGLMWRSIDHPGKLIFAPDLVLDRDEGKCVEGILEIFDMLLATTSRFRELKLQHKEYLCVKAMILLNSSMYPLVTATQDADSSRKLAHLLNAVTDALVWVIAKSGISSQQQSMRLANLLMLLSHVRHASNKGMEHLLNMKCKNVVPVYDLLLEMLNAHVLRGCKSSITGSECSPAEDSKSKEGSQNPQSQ

[23] = target: T7, Zinc finger protein mex-5 (Caenorhabditis elegans, UniProt Q9XUB2); experiment: MEX-5/TCR-2 RNA interaction inhibitors, dose response, biochemical, C. elegans, fluorescence polarization (AID 1960)
T7 sequence (Q9XUB2 whole entry): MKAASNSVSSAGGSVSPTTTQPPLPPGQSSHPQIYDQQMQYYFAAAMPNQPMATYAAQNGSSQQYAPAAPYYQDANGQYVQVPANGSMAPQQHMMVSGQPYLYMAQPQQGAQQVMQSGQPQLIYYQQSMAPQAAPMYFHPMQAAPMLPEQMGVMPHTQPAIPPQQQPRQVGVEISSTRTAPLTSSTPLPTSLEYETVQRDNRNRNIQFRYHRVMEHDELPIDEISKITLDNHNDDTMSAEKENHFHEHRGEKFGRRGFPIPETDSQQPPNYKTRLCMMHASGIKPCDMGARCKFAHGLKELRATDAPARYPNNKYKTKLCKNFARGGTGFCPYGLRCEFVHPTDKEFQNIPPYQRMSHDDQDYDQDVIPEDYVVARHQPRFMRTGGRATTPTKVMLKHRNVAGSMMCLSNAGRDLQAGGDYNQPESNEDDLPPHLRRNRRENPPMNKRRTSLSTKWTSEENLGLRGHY

[24] = target: T6, Estrogen receptor beta
[25] = target: T8, RNA-binding protein pos-1 (Caenorhabditis elegans, UniProt G5EF15); experiment: inhibitors of POS-1/mex-3 RNA binding, dose response, biochemical, fluorescence polarization (AID 1964);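 note: purified POS-1 fused to maltose binding protein made in E. coli; potency of compounds blocking POS-1 binding to fluorescent RNA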
T8 sequence (G5EF15 whole entry): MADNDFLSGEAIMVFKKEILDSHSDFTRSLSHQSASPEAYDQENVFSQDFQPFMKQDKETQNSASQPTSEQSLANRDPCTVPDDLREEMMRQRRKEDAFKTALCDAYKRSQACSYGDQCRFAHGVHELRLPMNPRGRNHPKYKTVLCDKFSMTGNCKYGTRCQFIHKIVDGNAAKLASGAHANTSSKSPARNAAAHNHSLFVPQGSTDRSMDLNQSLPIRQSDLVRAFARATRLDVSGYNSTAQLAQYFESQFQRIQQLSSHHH

[26] = target: Troponin, cardiac muscle (Homo sapiens, UniProt P19429+P45379+P63316); experiment: Fluorescence-based biochemical high throughput dose response assay for activators of the calcium sensitivity of cardiac Regulated Thin Filaments (RTF). [Related pubchem assays (depositor defined):AID493008, AID493018, AID504382, AID504383]; assay type: protein-complex assay

Compound: CCN(CC)c1ccc2cc(S(=O)(=O)c3ccc(C)cc3)c(=O)oc2c1
- EC50 [1]: 25.2 µM (active)
- EC50 [2]: > 180 µM (inactive)
- AC50 [3]: 18.4 µM (active)
- EC50 [4]: 21.9 µM (active)
- EC50 [5]: 0.203 µM (active)
- AC50 [6]: 63.4 µM (active)

Compound: COc1ccc(NS(=O)(=O)c2cccc(NC(=O)c3ccc(Cl)nc3)c2)cc1
- IC50 [7]: 38.2 µM (inactive)
- IC50 [8]: > 80 µM (inactive)
- IC50 [9]: 3.21 µM (active)

Compound: Cc1ccc(C(=O)Nc2cccc(C(F)(F)F)c2)cc1NC(=O)c1ccno1
- IC50 [7]: > 80 µM (inactive)
- IC50 [8]: > 80 µM (inactive)
- EC50 [10]: 0.333 µM (active)
- EC50 [11]: 0.285 µM (active)
- EC50 [12]: 6.47 µM (active)
- EC50 [13]: < 0.1 µM (active)

Compound: COc1ccc(C2c3c(ncn(CCCO)c3=N)Oc3ccc4ccccc4c32)cc1 (centres undefined)
- AC50 [14]: 8.82 µM (active)
- AC50 [15]: 5.6 µM (active)

Compound: CCOC(=O)C1=C(C)OC(N)=C(C#N)C1c1cc2c(cc1[N+](=O)[O-])OCO2 (centres undefined)
- AC50 [14]: 5.61 µM (active)
- IC50 [16]: 0.915 µM (active)
- AC50 [17]: 13.2 µM (active)

Compound: CCCCC(=O)NC(c1ccc(C)cc1)c1ccc2cccnc2c1O (centres undefined)
- IC50 [18]: 26.1 µM (inactive)
- IC50 [19]: 2.65 µM (active)
- IC50 [20]: 2.78 µM (active)

Compound: CC(=O)Nc1ccc(/N=C/c2nc(-c3ccc(C)cc3)oc2O)cc1
- IC50 [21]: 8.2 µM (active)
- IC50 [22]: 21.6 µM (not active)
- EC50 [23]: > 300 µM (inconclusive)
- IC50 [24]: > 50 µM (not active)
- EC50 [25]: > 300 µM (not active)
- EC50 [26]: 11.6 µM (inactive)
